Laboratory results: patent US20070160574A1, “Design of CXC chemokine analogs for the treatment of human diseases” (priority 2000, published 2007)
Non-standard residues stand in square brackets, D forms with d. No end group written: not given here. Aun = NCCCCCCCCCCC(=O)O

Key:
SUP-T1 cells = assay type: cell-based, human
Method: The experiments include contacting an SDF-1 mimetic with a cell. For the experiments, SUP-T1 cells (ATCC) were plated on the day of the experiment using 1.2×10^5 cells per well in 96-well black-wall/clear-bottom plates coated with poly-D-lysine (BD Biosciences) and loaded using a fluorescent calcium indicator. The indicator used was from a FLIPR Calcium 3 assay kit, component A, (Molecular Probes) and was loaded in the cell for 1 hr at 37° C. The intracellular calcium mobilization in response to the appropriate analogue was measured at 37° C. by monitoring the fluorescence as a function of time simultaneously in all the wells using a Flexstation Fluorometric Imaging Plate Reader (Molecular Devices).

[1] = target: T1, CXCR3 receptor (CXCR-3/300-19 cells) (Homo sapiens, UniProt P49682); assay: [Ca2+]i mobilization by IP-10 analogs, FLIPR Calcium 3 kit, CXCR-3/300-19 cells; assay type: cell-based; settings: for calcium mobilization activity of the cells: CXCR-3/300-19 cells
T1 construct: expressed in transfected cells; host or cells: 300-19 mouse pre-B lymphocytes (CXCR-3/300-19)
T1 sequence (P49682 1-368): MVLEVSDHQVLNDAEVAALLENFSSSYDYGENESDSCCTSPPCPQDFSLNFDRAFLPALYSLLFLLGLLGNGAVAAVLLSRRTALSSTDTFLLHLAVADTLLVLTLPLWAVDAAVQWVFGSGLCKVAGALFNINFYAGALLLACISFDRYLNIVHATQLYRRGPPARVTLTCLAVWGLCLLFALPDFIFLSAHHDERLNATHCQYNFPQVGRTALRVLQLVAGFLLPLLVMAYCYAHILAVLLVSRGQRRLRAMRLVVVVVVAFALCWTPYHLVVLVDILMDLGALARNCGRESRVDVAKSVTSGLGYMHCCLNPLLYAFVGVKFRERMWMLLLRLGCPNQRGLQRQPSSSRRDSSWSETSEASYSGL
Method: Binding and Calcium Mobilization: Suspensions of CXCR-3/300-19 cells were used to assess binding and intracellular calcium mobilization induced by IP-10 analogs. These are mouse pre-B lymphocytes transfected with the CXCR3 receptor, (Moser, et al). The cells were washed in RPMI media and resuspended in RPMI media supplemented with 10% FCS, then plated at 1.2×10^5 cells per well of 96-well black wall/clear bottom plates coated with poly-D-lysine (Becton Dickinson) and loaded with 100 uL fluorescent calcium indicator FLIPR Calcium 3 assay kit component A (Molecular Probes) for 1 hr at 37° C. The cells on the plates were then spun at 1000 rpm for 15 minutes at room temperature.
Each of the sequences successfully bound to the cellular receptors. The intracellular calcium mobilization in response to 25 uL (0-100000 nM final concentrations) of the appropriate and various concentrations of analogue was measured at 37° C. by monitoring fluorescence as a function of time in all the wells using the Flexstation Fluorometric Imaging Plate Reader (Molecular Devices). All analogues were run simultaneously with rhIP-10 (R&D Systems) as the standard. Table 7 provides the dosage effect of the binding of each of the IP-10 analogs on the calcium mobilization activity of the cells.

[2] = tested on: high affinity receptors on human immature monocyte-derived dendritic cells (iDCs); settings: cited from earlier work
[3] = tested on: endothelial cell chemotaxis; settings: in vitro; cited from earlier work

KPVSLSYRAPFRFFGGGKLKWIQEYLEKALN-NH2 (C-terminus assumed) [SEQ ID NO: 6]
EC50 (SUP-T1 cells): 283 nM

KPVSLSYRAPFRFFGGGRLKWIQEYLEKALN-NH2 (C-terminus assumed) [SEQ ID NO: 21]
EC50 (SUP-T1 cells): 361 nM

KPVSLSYRAPFRFFGGKGLKWIQEYLEKALN-NH2 [SEQ ID NO: 5]
EC50 (SUP-T1 cells): 211 nM

KPVSLSYRAPFRFFGGKKLKWIQEYLEKALN-NH2 (C-terminus assumed) [SEQ ID NO: 9]
EC50 (SUP-T1 cells): 225 nM

KPVSLSYRAPFRFFGGRGLKWIQEYLEKALN-NH2 (C-terminus assumed) [SEQ ID NO: 20]
EC50 (SUP-T1 cells): 307 nM

KPVSLSYRAPFRFFGGRRLKWIQEYLEKALN-NH2 [SEQ ID NO: 24]
EC50 (SUP-T1 cells): 173 nM

KPVSLSYRAPFRFFGKGGLKWIQEYLEKALN-NH2 (C-terminus assumed) [SEQ ID NO: 4]
EC50 (SUP-T1 cells): 312 nM

KPVSLSYRAPFRFFGKGKLKWIQEYLEKALN-NH2 (C-terminus assumed) [SEQ ID NO: 12]
EC50 (SUP-T1 cells): 307 nM

KPVSLSYRAPFRFFGKKGLKWIQEYLEKALN-NH2 (C-terminus assumed) [SEQ ID NO: 8]
EC50 (SUP-T1 cells): 304 nM

KPVSLSYRAPFRFFGKKKLKWIQEYLEKALN-NH2 (C-terminus assumed) [SEQ ID NO: 14]
EC50 (SUP-T1 cells): 92 nM

KPVSLSYRAPFRFFGRGGLKWIQEYLEKALN-NH2 (C-terminus assumed) [SEQ ID NO: 19]
EC50 (SUP-T1 cells): 253 nM

KPVSLSYRAPFRFFGRGRLKWIQEYLEKALN-NH2 [SEQ ID NO: 27]
EC50 (SUP-T1 cells): 4320 nM

KPVSLSYRAPFRFFGRRGLKWIQEYLEKALN-NH2 [SEQ ID NO: 23]
EC50 (SUP-T1 cells): 202 nM

KPVSLSYRAPFRFFGRRRLKWIQEYLEKALN-NH2 [SEQ ID NO: 29]
EC50 (SUP-T1 cells): 1870 nM

KPVSLSYRAPFRFFKGGKLKWIQEYLEKALN-NH2 (C-terminus assumed) [SEQ ID NO: 10]
EC50 (SUP-T1 cells): 233 nM

KPVSLSYRAPFRFFKGKGLKWIQEYLEKALN-NH2 [SEQ ID NO: 11]
EC50 (SUP-T1 cells): 228 nM

KPVSLSYRAPFRFFKGKKLKWIQEYLEKALN-NH2 (C-terminus assumed) [SEQ ID NO: 15]
EC50 (SUP-T1 cells): 157 nM

KPVSLSYRAPFRFFKKGGLKWIQEYLEKALN-NH2 (C-terminus assumed) [SEQ ID NO: 7]
EC50 (SUP-T1 cells): 281 nM

KPVSLSYRAPFRFFKKGKLKWIQEYLEKALN-NH2 (C-terminus assumed) [SEQ ID NO: 16]
EC50 (SUP-T1 cells): 140 nM

KPVSLSYRAPFRFFKKKGLKWIQEYLEKALN-NH2 (C-terminus assumed) [SEQ ID NO: 13]
EC50 (SUP-T1 cells): 137 nM

KPVSLSYRAPFRFFKKKKLKWIQEYLEKALN-NH2 (C-terminus assumed) [SEQ ID NO: 17]
EC50 (SUP-T1 cells): 316 nM

KPVSLSYRAPFRFFRGGGLKWIQEYLEKALN-NH2 (C-terminus assumed) [SEQ ID NO: 18]
EC50 (SUP-T1 cells): 219 nM

KPVSLSYRAPFRFFRGGRLKWIQEYLEKALN-NH2 [SEQ ID NO: 25]
EC50 (SUP-T1 cells): 132 nM

KPVSLSYRAPFRFFRGRGLKWIQEYLEKALN-NH2 [SEQ ID NO: 26]
EC50 (SUP-T1 cells): 248 nM

KPVSLSYRAPFRFFRGRRLKWIQEYLEKALN-NH2 [SEQ ID NO: 30]
EC50 (SUP-T1 cells): 178 nM

KPVSLSYRAPFRFFRRGGLKWIQEYLEKALN-NH2 (C-terminus assumed) [SEQ ID NO: 22]
EC50 (SUP-T1 cells): 171 nM

KPVSLSYRAPFRFFRRGRLKWIQEYLEKALN-NH2 [SEQ ID NO: 31]
EC50 (SUP-T1 cells): 709 nM

KPVSLSYRAPFRFFRRRGLKWIQEYLEKALN-NH2 [SEQ ID NO: 28]
EC50 (SUP-T1 cells): 597 nM

KPVSLSYRAPFRFFRRRRLKWIQEYLEKALN-NH2 [SEQ ID NO: 32]
EC50 (SUP-T1 cells): 1120 nM

acetylated-IP-10-(1-16)-[linker]-IP-10-(66-78) (Ac-VPLSRTVRCTCISISN[Aun]LKAVSKEMSKRSP; cysteine pairing not given here) [SEQ ID NO:1641, IP-10 analog, numbering of U.S. App; 11/590,210]
increase in intracellular calcium mobilization ([1]; 100 μM (FIG. 1), three independent experiments): ~500%
calcium mobilization activity of the cells ([1]; dosage 1.2 μM): 12.6%
calcium mobilization activity of the cells ([1]; dosage 3.7 μM): 12.7%
calcium mobilization activity of the cells ([1]; dosage 11.1 μM): 14.1%
calcium mobilization activity of the cells ([1]; dosage 33.3 μM): 20%
calcium mobilization activity of the cells ([1]; dosage 100 μM): 52.9%

B1: rBRAK: recombinant BRAK (CXCL14 chemokine) (protein, UniProt O95715 35-111, looked up)
C-X-C motif chemokine 14: SKCKCSRKGPKIRYSDVKKLEMKPKYPHCEEKMVIITTKSVSRYRGQEHCLHPKLQSTKRFIKWYNAWNEKRRVYEE
Kd [2]: 2 nM
concentration blocking endothelial cell chemotaxis (as low as) [3]: 1 nmol/L
